Measured values as given in patent publication US6495525B1, “VLA-4 inhibitor: oMePUPA-V” (Biogen, Inc., priority 1998, dated 2002).

What was measured:
VLA-4 = VLA-4 (Homo sapiens, UniProt P05556+P13612); experiment: CS1 Cell Adhesion Assay, Jurkat cells to CS1/BSA conjugate; type: cell-based; parameters: endogenous in cells; host or cells: Jurkat (human T cell line); conditions: in the presence of Mn+2
Experimental: The peptide NH2-cysteine-tyrosine-CS-1 was synthesized and coupled to BSA-SMCC (SMCC is a heterobifunctional crosslinker which reacts with free amino groups on BSA and the sole cysteine of the synthetic peptide) at a CS1/BSA ratio of 10:1. Wells were coated overnight with 100 μL of conjugate diluted to a final concentration of 1 ug/ml. The next day the wells were blocked with BSA in PBS for one hour and then washed three times.
The human T cell line, Jurkat, was labeled with 2 μM BCECF-AM, a fluorescent dye (2′, 7′, bis-(2-carboxyethyl)-5 and -6) carboxy fluorescein acetoxymethyl ester (Molecular Probes Inc., Eugene, Oregon; catalog #B-1150) that is internalized and deesterified thus trapping the dye within live cells. Jurkat cells (1×10^5 cells/well) in buffer containing 1 mM Mn^+2 were added to the coated plates in the presence of three-fold serial dilutions of inhibitor. Each concentration was assayed in duplicate. After 30 minutes at room temperature, the plates were inverted and washed three times or until no cells were adherent to control wells coated with BSA alone. CS1-adherent cells were quantitated in a Cytofluor fluorescent platereader using an excitation wavelength of 485 nm and an emission wavelength of 530 nm.
Cells adhered to CS1/BSA in the absence of compound served as the 0% inhibition control whereas cells adhering to BSA alone served as the 100% inhibition control. IC50's were calculated using Deltagraph software, version 5.

[1] = Bulk / drug substance stability (HPLC); type: physicochemical
Experimental: At four weeks, one or two degradation peaks became detectable at 40° C. and 50° C., but the level of each impurity peak was still less than 0.02%.

VLA-4, sequence (P13612 34-1032): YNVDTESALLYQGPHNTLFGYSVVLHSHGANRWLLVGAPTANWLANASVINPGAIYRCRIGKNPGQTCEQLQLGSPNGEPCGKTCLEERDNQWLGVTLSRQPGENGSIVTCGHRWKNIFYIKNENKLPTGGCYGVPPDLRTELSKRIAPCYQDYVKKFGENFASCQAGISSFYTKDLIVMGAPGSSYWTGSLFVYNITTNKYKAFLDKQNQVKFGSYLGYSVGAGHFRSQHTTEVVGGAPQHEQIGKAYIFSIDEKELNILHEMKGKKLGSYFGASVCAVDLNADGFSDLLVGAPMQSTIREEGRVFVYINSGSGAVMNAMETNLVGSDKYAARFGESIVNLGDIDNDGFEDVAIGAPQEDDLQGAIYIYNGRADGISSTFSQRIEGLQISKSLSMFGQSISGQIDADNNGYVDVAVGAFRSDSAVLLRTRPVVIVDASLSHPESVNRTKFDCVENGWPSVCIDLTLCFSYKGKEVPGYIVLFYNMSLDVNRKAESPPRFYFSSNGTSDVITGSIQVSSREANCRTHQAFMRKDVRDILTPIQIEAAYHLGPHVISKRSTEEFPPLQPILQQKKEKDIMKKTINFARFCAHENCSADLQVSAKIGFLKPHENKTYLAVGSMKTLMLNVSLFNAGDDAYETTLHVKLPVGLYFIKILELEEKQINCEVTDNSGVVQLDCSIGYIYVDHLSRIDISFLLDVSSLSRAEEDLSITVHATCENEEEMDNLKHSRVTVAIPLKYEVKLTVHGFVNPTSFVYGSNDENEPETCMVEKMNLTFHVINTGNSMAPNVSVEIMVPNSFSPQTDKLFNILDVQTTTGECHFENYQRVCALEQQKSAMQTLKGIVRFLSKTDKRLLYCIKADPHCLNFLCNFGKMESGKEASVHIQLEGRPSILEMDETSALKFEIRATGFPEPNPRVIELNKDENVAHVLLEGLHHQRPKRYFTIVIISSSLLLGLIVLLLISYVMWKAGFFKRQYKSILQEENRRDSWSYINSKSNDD
VLA-4, sequence (P05556 21-798): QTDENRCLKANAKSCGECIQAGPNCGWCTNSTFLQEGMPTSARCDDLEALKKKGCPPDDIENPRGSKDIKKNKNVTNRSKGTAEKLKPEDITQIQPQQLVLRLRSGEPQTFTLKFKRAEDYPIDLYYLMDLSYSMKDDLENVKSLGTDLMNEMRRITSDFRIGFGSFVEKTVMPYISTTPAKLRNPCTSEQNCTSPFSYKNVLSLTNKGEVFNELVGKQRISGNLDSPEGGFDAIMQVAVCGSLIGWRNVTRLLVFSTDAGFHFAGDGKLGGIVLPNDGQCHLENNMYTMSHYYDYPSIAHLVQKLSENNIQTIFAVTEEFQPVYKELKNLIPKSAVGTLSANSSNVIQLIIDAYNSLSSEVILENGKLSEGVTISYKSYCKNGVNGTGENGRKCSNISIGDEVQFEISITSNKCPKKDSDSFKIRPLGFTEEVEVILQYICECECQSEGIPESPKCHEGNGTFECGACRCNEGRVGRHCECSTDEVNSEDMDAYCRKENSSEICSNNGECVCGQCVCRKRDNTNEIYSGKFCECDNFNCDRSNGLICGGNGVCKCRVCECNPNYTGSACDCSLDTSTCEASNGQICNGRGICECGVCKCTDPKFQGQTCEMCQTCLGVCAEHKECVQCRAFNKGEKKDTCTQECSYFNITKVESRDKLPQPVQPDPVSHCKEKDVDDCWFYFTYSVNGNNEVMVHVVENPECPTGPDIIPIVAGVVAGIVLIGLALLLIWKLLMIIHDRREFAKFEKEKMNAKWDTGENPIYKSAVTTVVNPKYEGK

SMILES	blocking of Jurkat cell adhesion to CS1 (in words) (VLA-4)	level of each impurity (degradation) peak ([1]; four weeks, 40° C. and 50° C.)	degradation on storage (in words) ([1]; two weeks, 40° C. closed vial, 50° C. closed vial, 25° C., RH 60%, 40° C., RH 75%)
O=C(O)CN(CCN(CC(=O)O)CC(=O)O)CC(=O)O [EDTA, reference compound]	blocked completely	–	–
Cc1ccccc1NC(=O)Nc1ccc(CC(=O)N2CCC[C@@H]2C(=O)NC(C)CC(=O)O)cc1 (stereo partly drawn) [oMePUPA-V]	–	less than 0.02%	No degradation
